Results from patent publication US9127005B2, “Isoform selective phospholipase D inhibitors” (Vanderbilt University, priority 2009, dated 2015).

Columns and labels:
PLD1 [1] = biological target: T1, PLD1 (Homo sapiens (Human), UniProt Q13393); assay: Cellular CRCs: PLD1 response in Calu-1 cells; type: cell-based
Excerpt: In some aspects PLD activity in the cell is mediated predominately by PLD1. Thus, in some aspects, the cell is the human non-small-cell lung cancer (NSCLC) cell line Calu-1. In some aspects, the cell has been stimulated to activate PLD1 in the cell. For example, the cell can be stimulated with phorbol 12-myristate 13-acetate (PMA).

PLD2 [2] = biological target: T2, PLD2 (Homo sapiens (Human), UniProt O14939); assay: Cellular CRCs: PLD2 response in HEK293gfpPLD2 (293-PLD2) cells; type: cell-based; details: for Fold Selective: cellular CRCs, selectivity for PLD2 (293-PLD2) over PLD1 (Calu-1)
T2 sequence (O14939 whole entry): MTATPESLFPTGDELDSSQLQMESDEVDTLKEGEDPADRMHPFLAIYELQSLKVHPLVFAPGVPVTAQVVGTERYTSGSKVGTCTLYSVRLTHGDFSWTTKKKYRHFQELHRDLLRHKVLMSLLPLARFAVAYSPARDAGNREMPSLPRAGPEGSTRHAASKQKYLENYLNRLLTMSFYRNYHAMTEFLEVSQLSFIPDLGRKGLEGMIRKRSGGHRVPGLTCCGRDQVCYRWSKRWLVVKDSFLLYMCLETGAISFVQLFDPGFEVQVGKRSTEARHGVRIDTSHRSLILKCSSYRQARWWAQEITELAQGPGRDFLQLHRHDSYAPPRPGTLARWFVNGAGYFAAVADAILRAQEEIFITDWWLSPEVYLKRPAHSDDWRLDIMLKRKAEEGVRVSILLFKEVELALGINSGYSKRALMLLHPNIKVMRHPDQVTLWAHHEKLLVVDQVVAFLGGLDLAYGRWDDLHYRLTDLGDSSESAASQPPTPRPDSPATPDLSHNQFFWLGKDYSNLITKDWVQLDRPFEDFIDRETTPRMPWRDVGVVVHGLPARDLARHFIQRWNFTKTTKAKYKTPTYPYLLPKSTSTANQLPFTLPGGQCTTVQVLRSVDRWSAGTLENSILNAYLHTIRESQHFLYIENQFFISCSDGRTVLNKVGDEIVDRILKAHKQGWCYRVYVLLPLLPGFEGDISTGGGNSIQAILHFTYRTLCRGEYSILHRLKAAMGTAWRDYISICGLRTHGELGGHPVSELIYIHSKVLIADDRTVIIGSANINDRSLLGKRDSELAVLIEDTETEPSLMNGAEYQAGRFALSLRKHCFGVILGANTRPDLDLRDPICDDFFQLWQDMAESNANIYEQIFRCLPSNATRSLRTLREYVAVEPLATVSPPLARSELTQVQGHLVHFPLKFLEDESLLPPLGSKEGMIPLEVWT
Excerpt: In some aspects PLD activity in the cell is mediated predominately by PLD2. Thus, in some aspects, the cell stably overexpresses recombinant PLD2. For example, the cell can be a HEK293 cell stably overexpressing green florescent protein (GFP)-tagged PLD2.

PLD1 [3] = biological target: T1, PLD1; assay: Exogenous CRCs: in vitro PLD1 response; type: biochemical
Excerpt: (§1) The screening method can comprise providing a sample comprising a phosholipid and a PLD under conditions that allow the hydrolysis of the phospholipids to a phosphatidic acid, contacting the sample with a candidate agent, measuring enzymatic activity, comparing the enzymatic activity to a control, a decrease in enzymatic activity compared to the control identifying an agent that inhibits the PLD.
(§2) In some aspects, the PLD is a myr-Aff-1-stimulated mammalian human PLD1 or human PLD2.

PLD2 [4] = biological target: T2, PLD2; assay: Exogenous CRCs: in vitro PLD2 response; type: biochemical
Excerpt: as §1, §2

[5] = Calu-1 cells (PLD1), read-out: Cellular CRCs Calu-1 IC50
[6] = HEK293 cells overexpressing GFP-tagged PLD2, read-out: Cellular CRCs 293-PLD2 IC50
[7] = exogenous (in vitro) PLD2, read-out: Exogenous CRCs PLD2 IC50

T1 sequence (Q13393 whole entry): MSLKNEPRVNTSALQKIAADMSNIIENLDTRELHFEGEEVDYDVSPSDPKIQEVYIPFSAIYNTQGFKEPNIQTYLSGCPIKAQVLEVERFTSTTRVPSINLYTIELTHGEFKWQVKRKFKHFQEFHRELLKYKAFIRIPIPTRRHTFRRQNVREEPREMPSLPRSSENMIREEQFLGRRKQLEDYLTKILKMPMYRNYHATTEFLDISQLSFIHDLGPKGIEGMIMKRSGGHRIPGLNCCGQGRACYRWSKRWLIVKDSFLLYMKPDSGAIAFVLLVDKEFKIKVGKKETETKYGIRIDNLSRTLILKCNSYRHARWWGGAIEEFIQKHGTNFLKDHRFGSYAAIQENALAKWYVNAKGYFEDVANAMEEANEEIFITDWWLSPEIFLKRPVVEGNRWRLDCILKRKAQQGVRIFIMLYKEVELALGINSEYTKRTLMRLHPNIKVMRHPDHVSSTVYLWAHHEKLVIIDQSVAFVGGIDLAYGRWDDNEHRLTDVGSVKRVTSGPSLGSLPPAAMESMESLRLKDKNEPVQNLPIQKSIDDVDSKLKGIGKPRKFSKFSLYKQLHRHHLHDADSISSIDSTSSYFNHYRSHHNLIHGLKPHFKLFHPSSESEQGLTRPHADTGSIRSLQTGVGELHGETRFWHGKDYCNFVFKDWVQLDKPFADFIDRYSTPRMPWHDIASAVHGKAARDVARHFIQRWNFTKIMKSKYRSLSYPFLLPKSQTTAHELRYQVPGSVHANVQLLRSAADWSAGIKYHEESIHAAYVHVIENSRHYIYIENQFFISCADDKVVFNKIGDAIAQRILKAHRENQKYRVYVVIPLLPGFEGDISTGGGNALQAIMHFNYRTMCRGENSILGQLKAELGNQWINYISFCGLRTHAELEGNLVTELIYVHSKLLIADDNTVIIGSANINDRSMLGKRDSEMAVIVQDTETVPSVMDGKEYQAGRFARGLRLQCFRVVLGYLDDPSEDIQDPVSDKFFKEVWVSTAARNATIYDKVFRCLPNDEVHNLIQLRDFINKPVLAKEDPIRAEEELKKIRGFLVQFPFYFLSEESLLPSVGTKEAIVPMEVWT

Row | Compound | IC50 (PLD1 [1]; [5]) | IC50 (PLD2 [2]) | IC50 (PLD2 [2]; [6]) | also measured
1 | C[C@@H](CN1CCC2(CC1)C(=O)NC[C@H]2c1ccc(F)cc1)NC(=O)C#Cc1ccccc1 [NJ5, N-((S)-1-((S)-4-(4-fluorophenyl)-1-oxo-2,8-diazaspiro[4.5]decan-8-yl)propan-2-yl)-3-phenylpropiolamide 2,2,2-trifluoroacetate] | 0.32 µM | 4 µM |  | 
2 | C[C@@H](CN1CCC2(CC1)C(=O)NC[C@@H]2c1ccc(F)cc1)NC(=O)C1C[C@H]1c1ccccc1 (stereo partly drawn) [P0A, trans-N-((S)-1-((R)-4-(4-fluorophenyl)-1-oxo-2,8-diazaspiro[4.5]decan-8-yl)propan-2-yl)-2-phenylcyclopropane-carboxamide 2,2,2-trifluoroacetate] | 0.6 µM |  | 14 µM | 
3 | O=C(NCCN1CCC2(CC1)C(=O)NC[C@@H]2c1ccc(F)cc1)C1C[C@H]1c1ccccc1.O=C(O)C(F)(F)F (stereo partly drawn) [P1E, trans-N-(2-((R)-4-(4-fluorophenyl)-1-oxo-2,8-diazaspiro[4.5]decan-8-yl)ethyl)-2-phenylcyclopropane-carboxamide 2,2,2-trifluoroacetate] | 6.1 µM |  | 0.76 µM | Fold Selective (PLD2 [2]): 8-fold PLD2
4 | C[C@@H](CN1CCC2(CC1)C(=O)NCC2c1ccc(F)cc1)NC(=O)C1C[C@H]1c1ccccc1 (stereo partly drawn) [NGQ, trans-N-((S)-1-((S)-4-(4-fluorophenyl)-1-oxo-2,8-diazaspiro[4.5]decan-8-yl)propan-2-yl)-2-phenylcyclopropane-carboxamide 2,2,2-trifluoroacetate] | 3 µM |  | > 20 µM | 
5 | O=C(NCCN1CCC2(CC1)C(=O)NC[C@@H]2c1ccc(F)cc1)c1cc2ccccc2[nH]1.O=C(O)C(F)(F)F [P23, (R)-N-(2-(4-(4-fluorophenyl)-1-oxo-2,8-diazaspiro[4.5]decan-8-yl)ethyl)-1H-indole-2-carboxamide 2,2,2-trifluoroacetate] |  | 0.0025 µM |  | IC50 (PLD1 [1]): 0.021 µM; Fold Selective (PLD2 [2]): 8 fold PLD2
6 | C[C@@H](CN1CCC2(CC1)C(=O)NC[C@H]2c1ccc(F)cc1)NC(=O)c1cc2ccccc2[nH]1 [NG3, N-((S)-1-((S)-4-(4-fluorophenyl)-1-oxo-2,8-diazaspiro[4.5]decan-8-yl)propan-2-yl)-1H-indole-2-carboxamide 2,2,2-trifluoroacetate] | 0.016 µM | 0.14 µM |  | 
7 | O=C(NCCN1CCC2(CC1)C(=O)NC[C@H]2c1ccc(F)cc1)c1ccc2ccccc2c1.O=C(O)C(F)(F)F [P22, (S)-N-(2-(4-(4-fluorophenyl)-1-oxo-2,8-diazaspiro[4.5]decan-8-yl)ethyl)-2-naphthamide 2,2,2-trifluoroacetate] | 0.82 µM |  | 0.026 µM | Fold Selective (PLD2 [2]; trifluoroacetate): 32-fold PLD2; IC50 (PLD1 [3]): 3.9 µM; IC50 (PLD2 [4]; [7]): 0.073 µM
8 | C[C@@H](CN1CCC2(CC1)C(=O)NC[C@@H]2c1ccc(F)cc1)NC(=O)c1ccc(F)cc1 [NGH, 4-fluoro-N-((S)-1-((R)-4-(4-fluorophenyl)-1-oxo-2,8-diazaspiro[4.5]deean-8-yl)propan-2-yl)benzamide 2,2,2-txifluoroacetate] |  | 0.21 µM |  | IC50 (PLD1 [1]): 0.25 µM; IC50 (PLD2 [4]): 2.24 µM
9 | C[C@@H](CN1CCC2(CC1)C(=O)NC[C@@H]2c1ccc(F)cc1)NC(=O)C#Cc1ccccc1 [NGF, N—((S)-1-((R)-4-(4-Fluorophenyl)-1-oxo-2,8-diazaspiro[4.5]decan-8-yl)propan-2-yl)-3-phenylpropiolamide 2,2,2-trifluoroacetate] | 0.016 µM | 0.15 µM |  | 
10 | C[C@@H](CN1CCC2(CC1)C(=O)NC[C@H]2c1ccc(F)cc1)NC(=O)c1ccc2ccccc2c1 [P1Q, N-((S)-1-((S)-4-(4-fluorophenyl)-1-oxo-2,8-diazaspiro[4.5]decan-8-yl)propan-2-yl)-2-naphthamide 2,2,2-trifluoroacetate] | 0.093 µM |  | 0.54 µM | 
11 | O=C(C#Cc1ccccc1)NCCN1CCC2(CC1)C(=O)NC[C@@H]2c1ccc(F)cc1.O=C(O)C(F)(F)F [P0Q, (R)-N-(2-(4-(4-fluorophenyl)-1-oxo-2,8-diazaspiro[4.5]decan-8-yl)ethyl)-3-phenylpropiolamide 2,2,2-trifluoroacetate] |  | 0.07 µM |  | IC50 (PLD1 [1]): 1.2 µM; Fold Selective (PLD2 [2]): 17-fold PLD2
12 | O=C(NCCN1CCC2(CC1)C(=O)NC[C@H]2c1ccc(F)cc1)c1ccc2ccccc2c1.O=C(O)C(F)(F)F [P1D] | 3.7 µM |  | 0.22 µM | Fold Selective (PLD2 [2]): 17-Fol PLD2 fold
13 | 4-fluoro-N-((S)-1- ((S)-4-(4- fluorophenyl)-1-oxo- 2,8- diazaspiro[4.5]decan- 8-yl)propan-2- yl)benzamide 2,2,2- trifluoroacetate [P2B] | 1.7 µM |  | 2.8 µM | IC50 (PLD1 [3]): 5.15 µM; IC50 (PLD2 [4]; [7]): 9.44 µM
14 | C[C@@H](CN1CCC2(CC1)C(=O)NC[C@@H]2c1ccc(F)cc1)NC(=O)c1cc2ccccc2[nH]1 [P1G, N-((S)-l-((R)-4-(4-fluorophenyl)-1-oxo-2,8-diazaspiro[4.5]decan-8-yl)propan-2-yl)-1H-indole-2-carboxamide 2,2,2-trifluoroacetate] |  | 0.012 µM |  | IC50 (PLD1 [1]): 0.001 µM
